Assay results taken from PubChem BioAssay AID1438 (Sanford-Burnham Center for Chemical Genomics, 2008).

Target: Runt-related transcription factor 1 (Homo sapiens) + Core-binding factor subunit beta (Homo sapiens) (UniProt Q01196+Q13951)
Assay: Runt domain/CBFb-SMMHC interaction disruptors – biochemical, TR-FRET (AID 1438)

Sequence of Runt-related transcription factor 1 (Homo sapiens) + Core-binding factor subunit beta (Homo sapiens) (Q01196 whole entry, looked up, the tested form may be a part): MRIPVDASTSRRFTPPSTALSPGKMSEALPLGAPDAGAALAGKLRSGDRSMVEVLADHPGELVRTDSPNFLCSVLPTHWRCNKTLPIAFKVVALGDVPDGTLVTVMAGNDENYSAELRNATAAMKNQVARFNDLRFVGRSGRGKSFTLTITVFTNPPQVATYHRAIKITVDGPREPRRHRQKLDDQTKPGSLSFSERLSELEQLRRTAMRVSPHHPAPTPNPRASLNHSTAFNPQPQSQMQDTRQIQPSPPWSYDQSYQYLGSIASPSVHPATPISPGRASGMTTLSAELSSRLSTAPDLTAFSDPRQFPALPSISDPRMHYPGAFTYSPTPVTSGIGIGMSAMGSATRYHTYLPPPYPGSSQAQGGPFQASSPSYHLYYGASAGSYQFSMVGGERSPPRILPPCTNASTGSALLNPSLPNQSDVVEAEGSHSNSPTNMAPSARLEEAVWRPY
Sequence of Runt-related transcription factor 1 (Homo sapiens) + Core-binding factor subunit beta (Homo sapiens) (Q13951 whole entry, looked up, the tested form may be a part): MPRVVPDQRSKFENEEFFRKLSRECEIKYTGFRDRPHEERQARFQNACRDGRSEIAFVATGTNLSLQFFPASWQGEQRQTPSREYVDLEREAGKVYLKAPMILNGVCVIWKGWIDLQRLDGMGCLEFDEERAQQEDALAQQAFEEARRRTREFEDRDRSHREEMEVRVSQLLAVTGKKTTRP

With `CN1CCc2cccc3c2[C@@H]1Cc1ccc(O)c(O)c1-3` the IC50 was 7.12 µM.
